According to patent publication US10798941B2, “Microbiocidal oxadiazole derivatives” (SYNGENTA PARTICIPATIONS AG, priority 2016, dated 2020):
Read-outs that look alike come from different tables or passages of the source.

Columns and labels:
[1] = tested on: Puccinia recondita f. Sp. Tritici; test: Puccinia recondita f. sp. tritici / wheat / leaf disc preventative (brown rust); format: in vivo; details: foliar, 168 h, read-out: disease control
Procedure: Leaf disks or leaf segments of various plant species are cut from plants grown in a greenhouse. The cut leaf disks or segments are placed in multiwell plates (24-well format) onto water agar. The leaf disks are sprayed with a test solution before (preventative) or after (curative) inoculation. Compounds to be tested are prepared as DMSO solutions (max. 10 mg/ml) which are diluted to the appropriate concentration with 0.025% Tween20 just before spraying. The inoculated leaf disks or segments are incubated under defined conditions (temperature, relative humidity, light, etc.) according to the respective test system. A single evaluation of disease level is carried out 3 to 14 days after inoculation, depending on the pathosystem. Percent disease control relative to the untreated check leaf disks or segments is then calculated.
Wheat leaf segments cv. Kanzler were placed on agar in multiwell plates (24-well format) and sprayed with the formulated test compound diluted in water. The leaf disks were inoculated with a spore suspension of the fungus 1 day after application. The inoculated leaf segments were incubated at 19° C. and 75% relative humidity (rh) under a light regime of 12 hours light/12 hours darkness in a climate cabinet and the activity of a compound was assessed as percent disease control compared to untreated when an appropriate level of disease damage appears in untreated check leaf segments (7 to 9 days after application).
The following compounds at 200 ppm in the applied formulation give at least 80% disease control in this test when compared to untreated control leaf disks under the same conditions, which show extensive disease development.

[2] = tested on: Glomerella Lagenarium (Colletotrichum Lagenarium); test: Glomerella lagenarium (Colletotrichum lagenarium) liquid culture / cucumber / preventative (anthracnose); format: cell-based; details: Colletotrichum orbiculare, read-out: disease control
Procedure: Mycelia fragments or conidia suspensions of a fungus prepared either freshly from liquid cultures of the fungus or from cryogenic storage, are directly mixed into nutrient broth. DMSO solutions of the test compound (max. 10 mg/ml) are diluted with 0.025% Tween20 by a factor of 50 and 10 μl of this solution is pipetted into a microtiter plate (96-well format). The nutrient broth containing the fungal spores/mycelia fragments is then added to give an end concentration of the tested compound. The test plates are incubated in the dark at 24° C. and 96% relative humidity. The inhibition of fungal growth is determined photometrically after 2 to 7 days, depending on the pathosystem, and percent antifungal activity relative to the untreated check is calculated.
Conidia of the fungus from cryogenic storage are directly mixed into nutrient broth (PDB—potato dextrose broth). After placing a (DMSO) solution of test compound into a microtiter plate (96-well format), the nutrient broth containing the fungal spores is added.
The following compounds at 20 ppm in the applied formulation give at least 80% disease control in this test when compared to untreated control under the same conditions, which show extensive disease development.

[3] = 200 ppm in the applied formulation, wheat leaf segments cv. Kanzler, preventative, inoculated 1 day after application, assessed 7 to 9 days after application, vs untreated
[4] = 20 ppm in the applied formulation, liquid culture in PDB, 24° C., inhibition of growth measured photometrically 3 to 4 days after application, vs untreated

| SMILES | pest or weed control at 200 ppm [1, 3] [%] | inhibition of growth at 20 ppm [2, 4] [%] | pest or weed control at 200 ppm [1] [%] | inhibition of growth at 20 ppm [2] [%] |
| --- | --- | --- | --- | --- |
| N#Cc1ccn(Cc2ccc(-c3noc(C(F)(F)F)n3)cc2)c1 [Compound 1.60, 1-[[4-[5-(trifluoromethyl)-1,2,4-oxadiazol-3-yl]phenyl]methyl]pyrrole-3-carbonitrile] | ≥ 80 | ≥ 80 |  |  |
| O=C1CCc2cn(Cc3ccc(-c4noc(C(F)(F)F)n4)cc3)cc21 [Compound 1.74, 2-[[4-[5-(trifluoromethyl)-1,2,4-oxadiazol-3-yl]phenyl]methyl]-5,6-dihydrocyclopenta[c]pyrrol-4-one] | ≥ 80 | ≥ 80 |  |  |
| Cc1nccn1Cc1ccc(-c2noc(C(F)(F)F)n2)cn1 [Compound 1.139, 3-[6-[(2-methylimidazol-1-yl)methyl]-3-pyridyl]-5-(trifluoromethyl)-1,2,4-oxadiazole] | ≥ 80 |  |  |  |
| FC(F)(F)c1nc(-c2ccc(Cn3cnc4c(Cl)cccc43)cc2)no1 [Compound 1.94, 3-[4-[(4-chlorobenzimidazol-1-yl)methyl]phenyl]-5-(trifluoromethyl)-1,2,4-oxadiazole] | ≥ 80 | ≥ 80 |  |  |
| FC(F)(F)c1nc(-c2ccc(Cn3ccnc3)c(Cl)c2)no1 [Compound 1.112, 3-[3-chloro-4-(imidazol-1-ylmethyl)phenyl]-5-(trifluoromethyl)-1,2,4-oxadiazole] | ≥ 80 | ≥ 80 |  |  |
| Fc1ccc(-c2nccn2Cc2ccc(-c3noc(C(F)(F)F)n3)cc2)cc1 [Compound 1.65, 3-[4-[[2-(4-fluorophenyl)imidazol-1-yl)methyl]phenyl]-5-(trifluoromethyl)-1,2,4-oxadiazole] | ≥ 80 | ≥ 80 |  |  |
| COC(=O)c1ncn(Cc2ccc(-c3noc(C(F)(F)F)n3)cc2Cl)n1 [Compound 1.108, methyl 1-[[2-chloro-4-[5-(trifluoromethyl)-1,2,4-oxadiazol-3-yl]phenyl]methyl]-1,2,4-triazole-3-carboxylate] | ≥ 80 | ≥ 80 |  |  |
| COc1cc(Cl)cnc1OCc1cn(Cc2ccc(-c3noc(C(F)(F)F)n3)cc2)nn1 [Compound 1.29, 3-[4-[[4-[(5-chloro-3-methoxy-2-pyridyl)oxymethyl]triazol-1-yl]methyl]phenyl]-5-(trifluoromethyl)-1,2,4-oxadiazole] | ≥ 80 | ≥ 80 |  |  |
| Cc1cn(Cc2ccc(-c3noc(C(F)(F)F)n3)cc2Cl)c(C)n1 [Compound 1.105, 3-[3-chloro-4-[(2,4-dimethylimidazol-1-yl)methyl]phenyl]-5-(trifluoromethyl)-1,2,4-oxadiazole] | ≥ 80 |  |  |  |
| COc1ccc2c(ccn2Cc2ccc(-c3noc(C(F)(F)F)n3)cc2)c1 [Compound 1.75, 3-[4-[(5-methoxyindol-1-yl)methyl]phenyl]-5-(trifluoromethyl)-1,2,4-oxadiazole] | ≥ 80 | ≥ 80 |  |  |
| N#CCc1nc2ccccc2n1Cc1ccc(-c2noc(C(F)(F)F)n2)cc1 [Compound 1.58, 2-[1-[[4-[5-(trifluoromethyl)-1,2,4-oxadiazol-3-yl]phenyl]methyl]benzimidazol-2-yl]acetonitrile] | ≥ 80 | ≥ 80 |  |  |
| CCc1nc2ccccc2n1Cc1ccc(-c2noc(C(F)(F)F)n2)cc1 [Compound 1.63, 3-[4-[(2-ethylbenzimidazol-1-yl)methyl]phenyl]-5-(trifluoromethyl)-1,2,4-oxadiazole] | ≥ 80 | ≥ 80 |  |  |
| C[C@@H]1CN(Cc2ccc(-c3noc(C(F)(F)F)n3)cc2)C[C@@H](C)O1 [Compound 1.308, (2R,6R)-2,6-dimethyl-4-[[4-[5-(trifluoromethyl)-1,2,4-oxadiazol-3-yl]phenyl]methyl]morpholine] | ≥ 80 |  |  |  |
| COC(=O)c1ncn(Cc2ccc(-c3noc(C(F)(F)F)n3)cc2F)n1 [Compound 1.122, methyl 1-[[2-fluoro-4-[5-(trifluoromethyl)-1,2,4-oxadiazol-3-yl]phenyl]methyl]-1,2,4-triazole-3-carboxylate] | ≥ 80 | ≥ 80 |  |  |
| COc1ccc2c(c1)c(C=O)cn2Cc1ccc(-c2noc(C(F)(F)F)n2)cc1 [Compound 1.57, 5-methoxy-1-[[4-[5-(trifluoromethyl)-1,2,4-oxadiazol-3-yl]phenyl]methyl]indole-3-carbaldehyde] | ≥ 80 | ≥ 80 |  |  |
| Cc1ccc2c(ccn2Cc2ccc(-c3noc(C(F)(F)F)n3)cc2)c1 [Compound 1.52, 3-[4-[(5-methylindol-1-yl)methyl]phenyl]-5-(trifluoromethyl)-1,2,4-oxadiazole] | ≥ 80 | ≥ 80 |  |  |
| FC(F)(F)c1nc(-c2ccc(Cn3c(C(F)(F)F)nc4ccccc43)cc2)no1 [Compound 1.48, 5-(trifluoromethyl)-3-[4-[[2-(trifluoromethyl)benzimidazol-1-yl]methyl]phenyl]-1,2,4-oxadiazole] | ≥ 80 | ≥ 80 |  |  |
| CC(=O)c1cn(Cc2ccc(-c3noc(C(F)(F)F)n3)cc2)c2ccccc12 [Compound 1.50, 1-[1-[[4-[5-(trifluoromethyl)-1,2,4-oxadiazol-3-yl]phenyl]methyl]indol-3-yl]ethanone] |  |  | ≥ 80 | ≥ 80 |
| FC(F)(F)c1nc(-c2ccc(Cn3cnc4cccc(Cl)c43)cc2)no1 [Compound 1.95, 3-[4-[(7-chlorobenzimidazol-1-yl)methyl]phenyl]-5-(trifluoromethyl)-1,2,4-oxadiazole] | ≥ 80 | ≥ 80 |  |  |
| FC(F)(F)c1nc(-c2ccc(Cn3cnc(Br)c3)c(Cl)c2)no1 [Compound 1.107, 3-[4-[(4-bromoimidazol-1-yl)methyl]-3-chloro-phenyl]-5-(trifluoromethyl)-1,2,4-oxadiazole] | ≥ 80 | ≥ 80 |  |  |
| Fc1cc(-c2noc(C(F)(F)F)n2)ccc1Cn1cccc2ccnc1-2 [Compound 1.125, 3-[3-fluoro-4-(pyrrolo[2,3-b]pyridin-7-ylmethyl)phenyl]-5-(trifluoromethyl)-1,2,4-oxadiazole] | ≥ 80 |  |  |  |
| Cc1nccn1Cc1ccc(-c2noc(C(F)(F)F)n2)cc1 [Compound 1.53, 3-[4-[(2-methylimidazol-1-yl)methyl]phenyl]-5-(trifluoromethyl)-1,2,4-oxadiazole] | ≥ 80 |  |  |  |
| FC(F)(F)c1nc(-c2ccc(CN3CCOCC3)cc2)no1 [Compound 1.301, 4-[[4-[5-(trifluoromethyl)-1,2,4-oxadiazol-3-yl]phenyl]methyl]morpholine] | ≥ 80 |  |  |  |
| Cc1cc(C)n(Cc2ccc(-c3noc(C(F)(F)F)n3)cn2)n1 [Compound 1.140, 3-[6-[(3,5-dimethylpyrazol-1-yl)methyl]-3-pyridyl]-5-(trifluoromethyl)-1,2,4-oxadiazole] |  | ≥ 80 |  |  |
| FC(F)(F)c1nc(-c2ccc(Cn3c(Br)nc(Cl)c3Cl)cc2)no1 [Compound 1.72, 3-[4-[(2-bromo-4,5-dichloro-imidazol-1-yl)methyl]phenyl]-5-(trifluoromethyl)-1,2,4-oxadiazole] |  | ≥ 80 |  |  |
| CCOC(=O)c1c(-c2ccccc2)ncn1Cc1ccc(-c2noc(C(F)(F)F)n2)cc1 [Compound 1.189, ethyl 5-phenyl-3-[[4-[5-(trifluoromethyl)-1,2,4-oxadiazol-3-yl]phenyl]methyl]imidazole-4-carboxylate] |  | ≥ 80 |  |  |
| Cc1ccc2c(C=O)cn(Cc3ccc(-c4noc(C(F)(F)F)n4)cc3)c2c1 [Compound 1.51, 6-methyl-1-[[4-[5-(trifluoromethyl)-1,2,4-oxadiazol-3-yl]phenyl]methyl]indole-3-carbaldehyde] |  | ≥ 80 |  |  |
| Cc1cc(C)n(Cc2ccc(-c3noc(C(F)(F)F)n3)nc2)n1 [Compound 1.284, 3-[5-[(3,5-dimethylpyrazol-1-yl)methyl]-2-pyridyl]-5-(trifluoromethyl)-1,2,4-oxadiazole] |  | ≥ 80 |  |  |
